Laboratory results as given in patent US20090247589A1, “Monocarboxylates for modifying macrophage function” (The Brigham and Women's Hospital, Inc., priority 2006, published 2009).

Columns and labels:
RAW 264.7 cells [1] = experiment: Proinflammatory cytokine production by RAW 264.7 cells stimulated with IFN-γ plus uric acid; assay type: cell-based, murine
cardiac graft = details: continuous infusion by osmotic minipumps for 4 weeks; 60-80 μmol/kg/day; outliers excluded
Method: (§1) The dose of nicotinic acid was 60-80 μmol/kg/day, corresponding to 500-1000 mg of nicotinic acid in a 70 kg human (depending on bioavailability).

RAW 264.7 cells [2] = details: MTT assay
Method: as §1

RAW 264.7 cells [3] = details: LPS-stimulated RAW 264.7 cells; concomitant administration

Structure (SMILES) | abrogation of uric acid + IFN-γ stimulated production of proinflammatory cytokines such as TNF-α (RAW 264.7 cells [1]; concomitant administration) | graft condition (histology) compared to saline-treated controls (cardiac graft) | effect on cell proliferation (RAW 264.7 cells [2]) | production of IL-6 (RAW 264.7 cells [3]) | production of TNF-α (RAW 264.7 cells [3]) | production of proinflammatory cytokines such as TNF-α (stimulating effect) (RAW 264.7 cells [1]; uric acid together with other macrophage stimulators such as IFN-γ)
O=C(O)c1cccnc1 [nicotinic acid] | largely abrogated | near normal grafts | nor nicotinic acid have any significant effect | significantly reduced | significantly reduced | 
O=c1[nH]c(=O)c2[nH]c(=O)[nH]c2[nH]1 [uric acid] |  |  |  |  |  | synergistically, further stimulating production
